Consider ten molecules from patent US9328070B2, “Ethynyl derivatives” (Hoffmann-La Roche Inc., priority 2012, dated 2016).

Test [1] concerns the target T1, human mGlu5a receptor (Homo sapiens (Human), UniProt P41594). The test can be described thus: Intracellular Ca2+ mobilization assay (mGlu5 PAM assay). The class given is cell-based. Conditions: for Efficacy [%]: maximal response in % of the maximal stimulatory effect of saturating L-glutamate; for EC50 (nM) mGlu5 PAM assay / mGlu5 PAM EC50 [nM]: HEK-293 cells, human mGlu5a, glutamate at EC20; for Activity profile: PAM = positive allosteric modulator, NAM = negative allosteric modulator. Here is the method:
A monoclonal HEK-293 cell line stably transfected with a cDNA encoding for the human mGlu5a receptor was generated; for the work with mGlu5 Positive Allosteric Modulators (PAMs), a cell line with low receptor expression levels and low constitutive receptor activity was selected to allow the differentiation of agonistic versus PAM activity. Cells were cultured according to standard protocols (Freshney, 2000) in Dulbecco's Modified Eagle Medium with high glucose supplemented with 1 mM glutamine, 10% (vol/vol) heat-inactivated bovine calf serum, Penicillin/Streptomycin, 50 μg/ml hygromycin and 15 μg/ml blasticidin (all cell culture reagents and antibiotics from Invitrogen, Basel, Switzerland).
About 24 hrs before an experiment, 5×10^4 cells/well were seeded in poly-D-lysine coated, black/clear-bottomed 96-well plates. The cells were loaded with 2.5 μM Fluo-4AM in loading buffer (1×HBSS, 20 mM HEPES) for 1 hr at 37° C. and washed five times with loading buffer. The cells were transferred into a Functional Drug Screening System 7000 (Hamamatsu, Paris, France), and 11 half logarithmic serial dilutions of test compound at 37° C. were added and the cells were incubated for 10-30 min. with on-line recording of fluorescence. Following this pre-incubation step, the agonist L-glutamate was added to the cells at a concentration corresponding to EC20 (typically around 80 μM) with on-line recording of fluorescence; in order to account for day-to-day variations in the responsiveness of cells, the EC20 of glutamate was determined immediately ahead of each experiment by recording of a full dose-response curve of glutamate.
Responses were measured as peak increase in fluorescence minus basal (i.e. fluorescence without addition of L-glutamate), normalized to the maximal stimulatory effect obtained with saturating concentrations of L-glutamate. Graphs were plotted with the % maximal stimulatory using XLfit, a curve fitting program that iteratively plots the data using Levenburg Marquardt algorithm. The single site competition analysis equation used was y=A+((B−A)/(1+((x/C)D))), where y is the % maximal stimulatory effect, A is the minimum y, B is the maximum y, C is the EC50, x is the log 10 of the concentration of the competing compound and D is the slope of the curve (the Hill Coefficient). From these curves the EC50 (concentration at which half maximal stimulation was achieved), the Hill coefficient as well as the maximal response in % of the maximal stimulatory effect obtained with saturating concentrations of L-glutamate were calculated.
A depression of the signal observed after addition of the EC20 concentration of L-glutamate was indicative of an inhibitory activity of the test compound.

The target in test [2] is T1, human mGlu5a receptor. The test can be described thus: MPEP binding assay ([3H]MPEP displacement). The note with it: [3H]MPEP 2 nM, 1 h at 4° C., EBNA cell membranes. Here is the method:
For binding experiments, cDNA encoding human mGlu 5a receptor was transiently transfected into EBNA cells using a procedure described by Schlaeger and Christensen [Cytotechnology 15:1-13 (1998)]. Cell membrane homogenates were stored at −80° C. until the day of assay where upon they were thawed and resuspended and polytronised in 15 mM Tris-HCl, 120 mM NaCl, 100 mM KCl, 25 mM CaCl2, 25 mM MgCl2 binding buffer at pH 7.4 to a final assay concentration of 20 μg protein/well.
Saturation isotherms were determined by addition of twelve [^3H]MPEP concentrations (0.04-100 nM) to these membranes (in a total volume of 200 μl) for 1 h at 4° C. Competition experiments were performed with a fixed concentration of [^3H]MPEP (2 nM) and IC50 values of test compounds evaluated using 11 concentrations (0.3-10,000 nM). Incubations were performed for 1 h at 4° C.
At the end of the incubation, membranes were filtered onto unifilter (96-well white microplate with bonded GF/C filter preincubated 1 h in 0.1% PEI in wash buffer, Packard BioScience, Meriden, Conn.) with a Filtermate 96 harvester (Packard BioScience) and washed 3 times with cold 50 mM Tris-HCl, pH 7.4 buffer. Nonspecific binding was measured in the presence of 10 μM MPEP. The radioactivity on the filter was counted (3 min) on a Packard Top-count microplate scintillation counter with quenching correction after addition of 45 μl of microscint 40 (Canberra Packard S.A., Zurich, Switzerland) and shaking for 20 min.

T1 sequence (P41594 other isoform, or with tags, fused parts or gaps): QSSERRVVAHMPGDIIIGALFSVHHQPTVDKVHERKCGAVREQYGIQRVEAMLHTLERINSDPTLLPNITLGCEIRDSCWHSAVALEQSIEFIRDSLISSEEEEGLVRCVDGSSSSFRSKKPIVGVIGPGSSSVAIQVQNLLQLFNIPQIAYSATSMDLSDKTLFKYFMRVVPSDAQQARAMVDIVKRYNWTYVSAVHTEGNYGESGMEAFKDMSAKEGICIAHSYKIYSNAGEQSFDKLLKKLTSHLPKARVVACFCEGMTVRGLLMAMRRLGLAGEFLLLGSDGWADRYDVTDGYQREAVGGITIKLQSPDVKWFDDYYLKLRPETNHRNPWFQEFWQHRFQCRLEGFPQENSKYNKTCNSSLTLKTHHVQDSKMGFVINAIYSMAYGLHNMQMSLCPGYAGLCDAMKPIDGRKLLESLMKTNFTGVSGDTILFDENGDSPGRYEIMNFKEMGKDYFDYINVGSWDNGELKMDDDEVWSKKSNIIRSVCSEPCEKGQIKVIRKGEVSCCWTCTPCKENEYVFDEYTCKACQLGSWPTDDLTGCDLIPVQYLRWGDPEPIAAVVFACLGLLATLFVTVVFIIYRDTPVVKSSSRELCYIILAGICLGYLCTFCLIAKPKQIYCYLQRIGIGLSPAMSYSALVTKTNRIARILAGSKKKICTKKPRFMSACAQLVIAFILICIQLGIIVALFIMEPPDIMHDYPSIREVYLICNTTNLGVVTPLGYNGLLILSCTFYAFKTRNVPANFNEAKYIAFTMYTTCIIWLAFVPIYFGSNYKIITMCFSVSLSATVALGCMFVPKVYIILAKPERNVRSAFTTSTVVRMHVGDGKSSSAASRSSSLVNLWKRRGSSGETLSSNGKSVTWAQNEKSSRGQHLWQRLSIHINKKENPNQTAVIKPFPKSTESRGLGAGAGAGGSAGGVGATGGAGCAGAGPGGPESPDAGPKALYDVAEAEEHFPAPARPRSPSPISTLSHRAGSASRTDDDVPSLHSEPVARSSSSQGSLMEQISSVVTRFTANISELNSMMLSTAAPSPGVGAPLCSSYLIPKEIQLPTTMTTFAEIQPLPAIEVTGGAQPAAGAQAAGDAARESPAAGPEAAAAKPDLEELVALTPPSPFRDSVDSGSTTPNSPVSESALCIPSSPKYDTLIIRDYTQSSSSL

In the case of `CC(C)(NC(=O)c1ccc(C#Cc2ccnc(Cl)c2)cn1)C(F)(F)F` [drawing 5], on human mGlu5a receptor [1], the “Efficacy [%]” value amounted to 80%.
`CN(C(=O)c1ccc(C#Cc2cccc(Cl)c2)cn1)C(C)(C)C` [Example 2, 5-(3-Chloro-phenylethynyl)-pyridine-2-carboxylic acid tert-butyl-methyl-amide]: at human mGlu5a receptor [1], the “EC50 (nM) mGlu5 PAM assay” value was “inactive” and the Activity profile result is recorded as “NAM”. The Ki on human mGlu5a receptor [2] came to 15 nM.
On to `CN(C(=O)c1ccc(C#Cc2cccc(F)c2)cn1)C(C)(C)C` [Reference compound 1, reference compound], for which the Activity profile result on human mGlu5a receptor [1] is “PAM”. Also, the inhibition constant (Ki) at human mGlu5a receptor [2] turned out to be 29 nM.
As for `CC(C)(NC(=O)c1ccc(C#Cc2ccnc(Cl)c2)cn1)C(F)(F)F` [Reference compound 3, reference compound], on human mGlu5a receptor [1], the Activity profile result is reported as “PAM”. Moreover, the Ki on human mGlu5a receptor [2] amounted to 58 nM.
Take `CN(C(=O)c1ccc(C#Cc2cncc(Cl)c2)cn1)C(C)(C)C` [Reference compound 2, reference compound]: the Activity profile entry at human mGlu5a receptor [1] is listed as “PAM”. Moreover, at human mGlu5a receptor [2], the inhibition constant (Ki) worked out at 42 nM.
For `CN(C(=O)c1ccc(C#Cc2cncc(Cl)c2)cn1)C(C)(C)C` [drawing 4], the “Efficacy [%]” value at human mGlu5a receptor [1] is given as 33%.
As to `CN(C(=O)c1ccc(C#Cc2cccc(F)c2)cn1)C(C)(C)C` [drawing 3], the “Efficacy [%]” value on human mGlu5a receptor [1] came out at 64%.
Turning to `CN(C(=O)c1ccc(C#Cc2ccnc(Cl)c2)cn1)C(C)(C)C` [drawing 6], on human mGlu5a receptor [1], the “mGlu5 PAM EC50 [nM]” value is reported as “Inactive”.
As to `CN(C(=O)c1ccc(C#Cc2ccnc(Cl)c2)cn1)C(C)(C)C` [Example 1, 5-(2-Chloro-pyridin-4-ylethynyl)-pyridine-2-carboxylic acid tert-butyl-methyl-amide], at human mGlu5a receptor [1], the “EC50 (nM) mGlu5 PAM assay” value was “inactive” and the Activity profile entry is reported as “NAM”. The inhibitory constant (Ki) at human mGlu5a receptor [2] worked out at 28 nM.
`CN(C(=O)c1ccc(C#Cc2cccc(Cl)c2)cn1)C(C)(C)C` [drawing 7]: the “mGlu5 PAM EC50 [nM]” value at human mGlu5a receptor [1] is “inactive”.
